Values after ≈ are worked out from the molar mass of the structure shown.
Columns and labels:
[1] = system: bacteria listed in Table I, Klebsiella oxytoca, Enterobacter gergoviae, Pseudomonas putida #1, and Pseudomonas putida #2; assay: protein shampoo preservation test
Protocol: Fifty gram aliquots of the latex were placed in sterile bottles and one hundred gram aliquots of the diluted cutting oil were placed in 250-mL Erlenmeyer flasks. An appropriate amount of a fresh 1 percent stock solution of (2-nitrophenyl)-iodonium 2,2-dimethyl-4,6-dioxo-1,3-dioxan-5-ylide in acetone-water was added to achieve the desired final concentrations (see Tables 5 and 6). A small portion of the respective latex or cutting oil preparation was then streaked onto Tryptic Soy Agar (TSA) petri plates using sterile cotton swabs to determine whether the preparations were sterile. If the particular preparation was sterile, it was then inoculated with an appropriate volume (0.1 mL for the latex and 0.2 mL for the cutting oil) of a mixture of equal aliquots of 24 hr cultures of each of the bacterial organisms listed in Table 1 (not the fungi and yeast). The latex samples were incubated at 30° C. and the cutting oils were agitated on a rotary shaker at room temperature. After 24 hr, all samples were again streaked on TSA. All plates were then incubated at 30° C. for 48 hr and then rated 1 to 10 according to the growth rating system described in Table 4.
The results from this first set of streaks after inoculation are listed in the columns labeled streak number 1 in Tables 5 and 6. Samples with a rating of 3 or less from streak number 1 were reinoculated as described for the first inoculation above. Samples with a rating of 4 or greater were not reinoculated. After another 24 hr all samples were again restreaked on TSA agar. The results from these second streaks were labeled streak number 2 in Tables 5 and 6. Samples were reinoculated and restreaked in this fashion for a maximum of 10 streaks. Any samples with two streaks in a row with a ten rating were not restreaked again.
The ingredients of the hand creme, hand lotion, and protein shampoo are listed in Tables 7, 8 and 9, respectively. In the cosmetic preservative procedures, the stock solution of (2-nitrophenyl)-iodonium 2,2-dimethyl-4,6-dioxo-1,3-dioxan-5-ylide) was made in dimethylformamide (DMF)/water solution. In addition to the bacteria listed in Table I, the following bacteria were also included in the inocula: Klebsiella oxytoca, Enterobacter gergoviae, Pseudomonas putida #1, and Pseudomonas putida #2.

Penicillium chrysogenum = assay: minimum inhibitory concentration (MIC), agar dilution; type: cell-based; settings: ATCC 9480; malt yeast agar
Protocol: (§1) The minimum inhibitory concentration (MIC) for the compound of Example 19, i.e., (2-nitrophenyl)-iodonium 2,2-dimethyl-4,6-dioxo-1,3-dioxan-5-ylide was determined for 9 bacteria (using nutrient agar) and 5 yeast and fungi (using malt yeast agar). A one percent solution of this test compound (i.e., the compound of Example 19) was prepared in a mixture of acetone-water. Nutrient agar was prepared at pH 6.8 using deionized water according to standard Difco procedures. Malt yeast agar was prepared by adding 3 g Bacto yeast extract and 42 g Bacto Malt agar per liter of deionized water. The agar (nutrient agar when testing with bacteria and malt yeast agar when testing with yeast and fungi) was dispensed in 30 mL aliquots into 25×200 millimeter (mm) test tubes, capped and autoclaved for 15 min at 115° C. The test tubes containing the agar were cooled in a water bath until the temperature of the agar was 48° C. and then an appropriate amount of the one percent solution of the test compound was added (except in the controls where no test compound was added with the acetone-water) to the respective test tubes so that final concentrations of 500, 250, 100, 50, 25, 10, 5, 2.5, 1.0 and 0 parts per million (ppm) of the test compound in the agar were obtained. The agar solutions were each mixed and poured into individual petri plates so that each petri plate contained agar having a known concentration of test compound dispersed therein. After drying for 24 hr, the petri plates were inoculated with bacteria when the petri plates contained nutrient broth agar or with fungi and yeast when the petri plates contained malt yeast agar.
(§2) The petri plates were incubated at 30° C. for 48 hr and then read to determine if the test compound (i.e., the compound of Example 19) which was incorporated into the agar prevented growth of the respective bacteria. The minimum inhibitory concentration (MIC) for each bacteria was defined as the lowest concentration of the test compound which prevented growth of that bacteria.
(§3) The inoculation with the fungi and yeast was accomplished as follows. Cultures of fungi and yeast were incubated for 7 days on malt yeast agar at 30° C. These cultures were used to prepare suspensions by the following procedure. A suspension of each organism was prepared by adding 10 mL of sterile saline and 10 microliters […] of Triton ×100 to the slant. The sterile saline/Triton ×100 solution was then agitated with a sterile swab to suspend the microorganism grown on the slant. Each resulting suspension was diluted into sterile saline (1 part suspension: 9 parts sterile saline). […] The petri plates were incubated at 30° C. and read after 48 hr for yeast and 72 hr for fungi.

Trichoderma viride = assay: as above; type: cell-based; settings: ATCC 8678; malt yeast agar
Protocol: as §1, §2, §3

Candida albicans = assay: as above; type: cell-based; settings: ATCC 10231; malt yeast agar
Protocol: as §1, §2, §3

Aspergillus niger = assay: as above; type: cell-based; settings: ATCC 16404; malt yeast agar
Protocol: as §1, §2, §3

In the case of `CC1(C)OC(=O)[C-]([I+]c2ccccc2[N+](=O)[O-])C(=O)O1` [Example 19, (2-Nitrophenyl)-iodonium 2,2-dimethyl-4,6-dioxo-1,3-dioxan-5-ylide], the growth rating ([1]; 10 ppm, streak 1) is reported as 1 (0), the growth rating ([1]; 10 ppm, streak 2) is reported as 1 (0) and the growth rating ([1]; 10 ppm, streak 10) is reported as 1 (0). For the same compound, the growth rating ([1]; 25 ppm, streak 1) was 1 (0), the growth rating ([1]; 25 ppm, streak 2) was 1 (0) and the growth rating ([1]; 25 ppm, streak 3) was 1 (0). For the same compound, the growth rating ([1]; 25 ppm, streak 4) was 1 (0), the growth rating ([1]; 25 ppm, streak 5) was 1 (0) and the growth rating ([1]; 25 ppm, streak 6) was 1 (0). For the same compound, the growth rating ([1]; 25 ppm, streak 7) was 1 (0), the growth rating ([1]; 25 ppm, streak 8) was 1 (0) and the growth rating ([1]; 25 ppm, streak 9) was 1 (0). The growth rating ([1]; 25 ppm, streak 10) was 1 (0), the growth rating ([1]; 50 ppm, streak 1) was 1 (0) and the growth rating ([1]; 50 ppm, streak 2) was 1 (0). For the same compound, the growth rating ([1]; 50 ppm, streak 3) was 1 (0), the growth rating ([1]; 50 ppm, streak 4) was 1 (0) and the growth rating ([1]; 50 ppm, streak 5) was 1 (0). For the same compound, the growth rating ([1]; 50 ppm, streak 6) was 1 (0), the growth rating ([1]; 50 ppm, streak 7) was 1 (0) and the growth rating ([1]; 50 ppm, streak 8) was 1 (0). The growth rating ([1]; 50 ppm, streak 9) was 1 (0), the growth rating ([1]; 50 ppm, streak 10) was 1 (0) and the growth rating ([1]; 100 ppm, streak 1) was 1 (0). The growth rating ([1]; 100 ppm, streak 2) was 1 (0), the growth rating ([1]; 100 ppm, streak 3) was 1 (0) and the growth rating ([1]; 100 ppm, streak 4) was 1 (0). For the same compound, the growth rating ([1]; 100 ppm, streak 5) was 1 (0), the growth rating ([1]; 100 ppm, streak 6) was 1 (0) and the growth rating ([1]; 100 ppm, streak 7) was 1 (0). The growth rating ([1]; 100 ppm, streak 8) was 1 (0), the growth rating ([1]; 100 ppm, streak 9) was 1 (0) and the growth rating ([1]; 100 ppm, streak 10) was 4 (11-25). For the same compound, the MIC (Penicillium chrysogenum) was 100 µg/mL (≈ 256 µM), the MIC (Trichoderma viride) was 250 µg/mL (≈ 639 µM) and the MIC (Candida albicans) was 100 µg/mL (≈ 256 µM). It also gave an MIC (Aspergillus niger) of 250 µg/mL (≈ 639 µM).

From patent US5106407A, “Iodones and methods for antimicrobial use” (priority 1989, dated 1992)
